Patent US20040002069A1, “Hepatic gene expression profiling of streptozotocin-induced diabetes” (The Regents of the University of California, priority 2002, published 2004)

Test system: hepatic gene expression
Assay: Hepatic gene expression profiling of streptozotocin-induced diabetes (Affymetrix Mu11KsubA/Mu11KsubB arrays)
Type: in vivo, Swiss-Webster mice
Conditions: liver, STZ vs control mice
Description: Mice and treatment. Female, 8-month old Swiss-Webster mice were purchased from Jackson Laboratories. Diabetes was induced by three weekly intraperitoneal injections of streptozotocin (STZ; 10 mg/100 g body weight) in 50 mM sodium citrate, pH 4.5. […] Only mice with blood glucose levels higher than 3 mg/ml were used. Mice injected with equivalent volumes of sodium citrate at the same times served as controls. Mice were sacrificed one week after the last injection. Mice were fasted for 24 h before sacrifice.
Measurement of Specific mRNA Levels. Total liver RNA was isolated from frozen tissue fragments using TRI Reagent (Molecular Research Center, Inc., Cincinnati, Ohio) as described previously (Cao et al., Proc. Natl. Acad. Sci. U.S. A. 98:10630-10635 (2001)). Specific mRNA levels were measured using the Affymetrix Mu11KsubA and Mu11KsubB high-density oligonucleotide arrays using standard Affymetrix protocols as described (Cao et al., Proc. Natl. Acad. Sci. U.S. A. 98:10630-10635 (2001)). Briefly, cDNA was prepared from total RNA using Superscript Choice System with a primer containing oligo(dT) and the T7 RNA polymerase promoter sequence. Biotinylated cRNA was synthesized from purified cDNA using the Enzo BioArray High Yield RNA Transcript Labeling Kit (Enzo Biochem), and CRNA purified using RNeasy mini columns (Qiagen, Chatsworth, Calif.). An equal amount of cRNA from each animal was separately hybridized to Mu11KsubA and Mu11ksubB high-density oligonucleotide arrays. The arrays were hybridized for 16 h at 45° C. After hybridization, arrays were washed, stained with streptavidin-phycoerythrin, and scanned using a Hewlett-Packard GeneArray Scanner.
Data Analysis and Statistics. Image analysis and data quantification were performed using the Affymetrix Microarray Suite 5.0. Affymetrix Mu11KsubA and Mu11KsubB arrays contain targets for more than 11,000 mouse genes and expressed sequence tags (ESTs). Each gene or EST is represented on the array by 20 perfectly matched (PM) oligonucleotides and 20 mismatched (MM) control probes that contain a single central-base mismatch. The signal intensities of PM and MM were used to calculate a discrimination score, R, which is equal to (PM−MM)/(PM+MM). A detection algorithm utilized R to generate a detection p-value and assign a Present, Marginal or Absent call using the Wilcoxon signed rank test (Wilcoxon F., Biometrics 1:80-83 (1945); Affymetrix, Inc., New Statistical Algorithms for Monitoring Gene Expression on GeneChip Probe Arrays, Technical Notes 1, Part No. 701097 Rev. 1 (2001)). Only genes that were “Present” in at least 2 out of 3 arrays per experimental group were considered for further analysis. A signal algorithm calculated the relative level of expression of each transcript using the One-Step Tukey's Biweight Estimate (Affymetrix, Inc., New Statistical Algorithms for Monitoring Gene Expression on GeneChip Probe Arrays, Technical Notes 1, Part No. 701097 Rev. 1 (2001)). This procedure generates a robust weighted mean that is relatively insensitive to outliers, even when they are extreme. Genes with a signal intensity lower than the mean array signal intensity in 2 or more of the 3 arrays in either experimental group were eliminated from the analysis. All arrays were scaled to a target intensity of 2500. To identify differentially expressed genes, each of the 3 control samples was compared with each of the 3 STZ-treated samples, resulting in 9 pairwise comparisons. […] Difference values (PM-MM) between the control and STZ-treated arrays were used to generate a one-sided p-value for each set of probes. Default boundaries between significant and not significant p-values were used (Affymetrix, Inc., New Statistical Algorithms for Monitoring Gene Expression on GeneChip Probe Arrays, Technical Notes 1, Part No. 701097 Rev. 1 (2001)). […]

SMILES: CN(N=O)C(=O)N[C@H]1C(O)O[C@H](CO)[C@@H](O)[C@@H]1O (mixture of isomers) [STZ, streptozotocin]
- FC RIKEN cDNA 1110002E23 gene (GenBank AA000467): 2.0 fold
- FC Proteasome (prosome, macropain) subunit, alpha type 4 (Psma4) mRNA (GenBank AA008321): 2.0 fold
- FC X-box binding protein 1 (Xbp1) mRNA (GenBank AA016424): 2.1 fold
- FC Cysteine-rich protein 2 (Csrp2) mRNA (GenBank AA028770): 2.0 fold
- FC Similar to eukaryotic translation initiation factor 4 gamma, 1 (0610008L05Rik) (GenBank AA038437): 2.6 fold
- FC Bifunctional aminoacyl-tRNA synthetase mRNA (GenBank AA048927): 3.6 fold
- FC RIKIEN cDNA 1810034D23 gene (GenBank AA066610): 1.9 fold
- FC CathepsinL (Ctsl) mRNA (GenBank AA096813): 2.5 fold
- FC Poly A binding protein, cytoplasmic 1 (Pabpc1) mRNA (GenBank AA106783): 2.0 fold
- FC Phosphoenolpyruvate carboxykinase 1, cytosolic (Pck1) mRNA (GenBank AA110781): 3.6 fold
- FC mp72b03.rl Soares thymus cDNA clone IMAGE:574733, similar to cyclophilin (GenBank AA124572): 1.9 fold
- FC Stearoyl-Coenzyme A desaturase 1 (Sed1) mRNA (GenBank AA137436): −14.0 fold
- FC Cytochrome P450, 2c40 (Cyp2c40) mRNA (GenBank AA137659): −2.5 fold
- FC Heat shock protein, 74 kDa, A (Hspa9A) mRNA (GenBank AA138378): 3.5 fold
- FC Protease (prosome, macropain) 28 subunit, alpha (Psme1) mRNA (GenBank AA165782): 1.9 fold
- FC Carbon catabolite repression 4 homolog (S. cerevisiae) (Ccr4) mRNA (GenBank AA172909): 1.8 fold
- FC Erythroid differentiation regulator (Edr) mRNA (GenBank AA174883): 1.8 fold
- FC Nuclear receptor coactivator 4 (Ncoa4) mRNA (GenBank AA217659): 1.8 fold
- FC Argininosuccinate lyase (As1) mRNA (GenBank AA237297): 2.0 fold
- FC Expressed sequence A1266885 (GenBank AA250708): −2.5 fold
- FC RIKEN cDNA 2310009NO5 gene (2310009N05Rik) (GenBank AA260798): 1.9 fold
- FC Isopentenyl-diphosphate delta-isomerase mRNA (GenBank AA267683): −2.0 fold
- FC Activating transcription factor 5 (Atf5) mRNA (GenBank AA270796): 2.1 fold
- FC Cellular repressor of E1A-stimulated genes (Creg) mRNA (GenBank AA271265): 2.0 fold
- FC Splicing factor 3b, subunit 1, 155 kDa (Sf3b1) mRNA (GenBank AA277153): 1.8 fold
- FC NADH dehydrogenase (ubiquinone) 1 beta subcomplex 6 mRNA (GenBank AA277720): 2.5 fold
- FC vb90b12.rl Soares mouse 3NbMS cDNA clone IMAGE:764255 (GenBank AA285530): 1.9 fold
- FC Ribonuclease, Rnase A family 4 (Rnase4) mRNA (GenBank AA289858): −4.6 fold
- FC Splicing factor, arginine/serine-rich 5 (SRp40, HRS) (Sfrs5) mRNA (GenBank AA388848): 1.9 fold
- FC Nuclear receptor coactivator 3 (Ncoa3) mRNA (GenBank AA390043): 2.1 fold
- FC Sirtuin 2 (Sirt2) mRNA (GenBank AA472476): −2.0 fold
- FC Retinal taurine transporter; solute carrier family 6, member 6 (Slc6a6) mRNA (GenBank AA472795): 1.9 fold
- FC RAB9, member RAS oncogene family (Rab9) mRNA (GenBank AA518955): 1.9 fold
- FC RIKEN cDNA 1810020N21 gene (GenBank AA538556): 2.0 fold
- FC Expressed sequence AA960392 (GenBank AA592283): 1.8 fold
- FC Ring finger protein 4 (Rnf4) mRNA (GenBank AA600461): 2.1 fold
- FC Interferon alpha responsive gene, 15 kDa (Ifrg15-pending) mRNA (GenBank AA608036): 1.9 fold
- FC RIKEN cDNA 2700059D21 gene (GenBank AA655730): 1.8 fold
- FC vq87g01.r1 Knowles Solter mouse blastocyst B3 cDNA clone IMAGE: 1109328 (GenBank AA666984): 2.0 fold
- FC C77421 Mouse 3.5-dpc blastocyst cDNA clone J0030G04, similar to Mouse B10.VL30LTR gene (GenBank C77421): 2.5 fold
- FC Expressed sequence C79645 (GenBank C79645): 1.8 fold
- FC mc25d02.rl Soares mouse cDNA clone IMAGE:349539 (GenBank W3021 1): 2.1 fold
- FC ATP synthase, H+ transporting, mitochondrial F0 complex, subunit b, isoform 1 (Atp5f1) mRNA (GenBank W08392): 1.9 fold
- FC Destrin (Dsn) mRNA (GenBank W08453): 1.9 fold
